Assay results taken from US10508120B2, “TYK2 inhibitors and uses thereof” (Nimbus Lakshmi, Inc., priority 2017, dated 2019).

How the values were obtained:
[1] = biological target: human TYK2 (JH2domain-pseudokinase) (Homo sapiens (Human), UniProt P29597); experiment: TYK2 JH2 Domain Binding Assay (KINOMEscan)
Outline: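 Kds, run in duplicate, came from Hill fits (slope fixed at −1) of an 11-point 3-fold dilution series starting at 30,000 nM. Bead-retained TYK2 JH2 (aa G556–D888)–NFkB DBD fusion, DNA-tagged and expressed in HEK293 cells, was read by qPCR after 1 h room-temperature binding in 0.9% DMSO.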

Tyk2 kinase domain (DH1) = Tyk2 kinase domain (DH1) (Homo sapiens (Human), UniProt P29597); experiment: Tyk2 Radioactive Kinase Assay; type: biochemical; details: for inhibition at 10 µM: read-out: Tyk2 JH1% Inhibition @ 10 μM
Chain of Tyk2 kinase domain (DH1) (P29597 897-1176): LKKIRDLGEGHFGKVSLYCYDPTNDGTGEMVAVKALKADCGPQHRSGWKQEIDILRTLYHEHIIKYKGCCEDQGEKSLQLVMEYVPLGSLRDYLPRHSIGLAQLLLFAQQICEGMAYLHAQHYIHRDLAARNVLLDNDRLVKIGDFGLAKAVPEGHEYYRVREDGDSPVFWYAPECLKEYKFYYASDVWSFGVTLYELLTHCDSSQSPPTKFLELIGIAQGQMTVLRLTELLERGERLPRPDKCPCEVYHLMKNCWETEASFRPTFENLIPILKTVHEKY
Outline: (§1)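 Values are single-concentration percent inhibition figures. They were obtained with 10 μM compound in a radioactivity-based kinase assay run separately on each enzyme.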

JAK2 kinase domain (JH1) = JAK2 kinase domain (JH1) (Homo sapiens (Human), UniProt O60674); experiment: JAK2 Radioactive Kinase Assay; type: biochemical; details: for inhibition at 10 µM: read-out: JAK2 JH1% Inhibition @ 10 μM
Chain of JAK2 kinase domain (JH1) (O60674 849-1124): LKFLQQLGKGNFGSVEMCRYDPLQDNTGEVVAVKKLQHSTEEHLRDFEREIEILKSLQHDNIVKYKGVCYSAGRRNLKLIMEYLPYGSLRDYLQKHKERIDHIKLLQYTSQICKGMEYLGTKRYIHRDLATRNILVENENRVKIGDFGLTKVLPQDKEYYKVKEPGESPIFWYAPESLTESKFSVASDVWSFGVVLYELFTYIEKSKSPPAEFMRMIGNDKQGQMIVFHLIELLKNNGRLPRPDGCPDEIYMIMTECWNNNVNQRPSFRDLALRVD
Outline: as §1

[2] = biological target: Tyk2/JAK2 (heterodimeric complex) (Homo sapiens (Human), UniProt P29597); experiment: IL-12 Induced pSTAT4 in Human PBMC; type: cell-based; details: 1.7 ng/mL IL-12
Chain of Tyk2/JAK2 (heterodimeric complex) (P29597 whole entry, other chains not shown): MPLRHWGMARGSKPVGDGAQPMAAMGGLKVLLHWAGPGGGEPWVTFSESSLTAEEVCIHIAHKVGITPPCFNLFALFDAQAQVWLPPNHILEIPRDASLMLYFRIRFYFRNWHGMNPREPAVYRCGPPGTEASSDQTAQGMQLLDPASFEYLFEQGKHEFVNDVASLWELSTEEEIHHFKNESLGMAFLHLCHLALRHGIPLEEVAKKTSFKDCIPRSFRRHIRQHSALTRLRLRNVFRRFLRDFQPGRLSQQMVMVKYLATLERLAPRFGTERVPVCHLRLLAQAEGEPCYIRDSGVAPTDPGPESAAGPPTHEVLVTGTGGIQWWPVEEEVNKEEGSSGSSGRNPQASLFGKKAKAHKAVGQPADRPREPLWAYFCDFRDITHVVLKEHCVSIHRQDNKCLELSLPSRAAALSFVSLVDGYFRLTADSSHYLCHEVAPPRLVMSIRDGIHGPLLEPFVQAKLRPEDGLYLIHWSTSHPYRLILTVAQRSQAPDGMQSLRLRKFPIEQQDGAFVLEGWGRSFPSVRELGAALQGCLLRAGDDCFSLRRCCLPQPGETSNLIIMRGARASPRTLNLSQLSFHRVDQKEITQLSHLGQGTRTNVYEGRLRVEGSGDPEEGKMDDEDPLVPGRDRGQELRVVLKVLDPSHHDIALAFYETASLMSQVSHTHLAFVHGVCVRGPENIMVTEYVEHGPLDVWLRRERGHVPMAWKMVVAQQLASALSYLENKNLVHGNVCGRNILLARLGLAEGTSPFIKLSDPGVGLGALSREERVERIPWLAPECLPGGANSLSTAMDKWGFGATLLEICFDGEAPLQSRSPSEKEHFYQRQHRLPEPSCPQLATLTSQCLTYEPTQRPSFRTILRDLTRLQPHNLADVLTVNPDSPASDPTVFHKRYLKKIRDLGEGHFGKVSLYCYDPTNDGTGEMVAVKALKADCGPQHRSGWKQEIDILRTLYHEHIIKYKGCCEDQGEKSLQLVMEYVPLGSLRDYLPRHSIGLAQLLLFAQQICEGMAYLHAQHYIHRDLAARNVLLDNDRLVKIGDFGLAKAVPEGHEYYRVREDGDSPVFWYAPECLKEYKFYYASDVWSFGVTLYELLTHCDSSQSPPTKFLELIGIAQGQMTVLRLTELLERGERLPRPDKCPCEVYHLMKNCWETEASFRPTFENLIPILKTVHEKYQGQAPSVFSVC
From the text: The IL-12 Induced pSTAT4 assay evaluates the inhibition of IL-12 induced STAT4 phophorylation mediated by Tyk2/JAK2 (heterodimeric complex).

[3] = biological target: JAK2/JAK2 homdimeric complex (Homo sapiens (Human), UniProt O60674); experiment: GM-CSF Induced pSTAT5 in Human PBMC; type: cell-based; details: GM-CSF 5 ng/mL for 20 minutes, pSTAT5 by MSD, read-out: PBMC_GMCSF_pSTAT5 IC50
Chain of JAK2/JAK2 homdimeric complex (O60674 whole entry): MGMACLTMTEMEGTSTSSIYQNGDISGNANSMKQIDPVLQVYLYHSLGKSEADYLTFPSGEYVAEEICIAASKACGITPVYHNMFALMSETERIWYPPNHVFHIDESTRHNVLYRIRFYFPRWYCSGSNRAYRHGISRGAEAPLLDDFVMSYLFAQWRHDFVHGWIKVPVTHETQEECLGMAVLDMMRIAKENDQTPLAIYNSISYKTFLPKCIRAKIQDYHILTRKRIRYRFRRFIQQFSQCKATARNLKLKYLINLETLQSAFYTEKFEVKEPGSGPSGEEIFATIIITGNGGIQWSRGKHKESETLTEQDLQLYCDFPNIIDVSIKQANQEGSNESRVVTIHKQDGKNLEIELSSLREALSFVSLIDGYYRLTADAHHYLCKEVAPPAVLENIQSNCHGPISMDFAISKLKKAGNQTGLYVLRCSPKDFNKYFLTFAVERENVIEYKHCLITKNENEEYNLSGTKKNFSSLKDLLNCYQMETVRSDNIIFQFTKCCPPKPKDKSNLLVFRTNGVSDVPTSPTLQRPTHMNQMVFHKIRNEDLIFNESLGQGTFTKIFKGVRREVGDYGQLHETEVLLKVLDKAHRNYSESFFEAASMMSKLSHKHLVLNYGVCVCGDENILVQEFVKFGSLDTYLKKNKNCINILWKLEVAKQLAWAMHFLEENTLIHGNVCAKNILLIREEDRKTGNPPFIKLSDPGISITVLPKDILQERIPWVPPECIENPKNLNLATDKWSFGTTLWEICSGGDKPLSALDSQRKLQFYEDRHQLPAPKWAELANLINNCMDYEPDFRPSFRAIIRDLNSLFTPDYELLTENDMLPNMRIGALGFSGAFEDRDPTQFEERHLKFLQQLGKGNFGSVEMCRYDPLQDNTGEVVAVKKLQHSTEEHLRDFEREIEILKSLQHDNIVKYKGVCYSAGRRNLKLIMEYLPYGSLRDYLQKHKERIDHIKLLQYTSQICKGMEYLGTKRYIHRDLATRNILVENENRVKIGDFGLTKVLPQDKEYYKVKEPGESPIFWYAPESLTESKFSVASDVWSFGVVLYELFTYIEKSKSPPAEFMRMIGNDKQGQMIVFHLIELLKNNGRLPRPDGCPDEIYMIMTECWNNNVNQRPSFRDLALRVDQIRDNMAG
Chain of JAK2/JAK2 homdimeric complex (P32927 17-897 partner): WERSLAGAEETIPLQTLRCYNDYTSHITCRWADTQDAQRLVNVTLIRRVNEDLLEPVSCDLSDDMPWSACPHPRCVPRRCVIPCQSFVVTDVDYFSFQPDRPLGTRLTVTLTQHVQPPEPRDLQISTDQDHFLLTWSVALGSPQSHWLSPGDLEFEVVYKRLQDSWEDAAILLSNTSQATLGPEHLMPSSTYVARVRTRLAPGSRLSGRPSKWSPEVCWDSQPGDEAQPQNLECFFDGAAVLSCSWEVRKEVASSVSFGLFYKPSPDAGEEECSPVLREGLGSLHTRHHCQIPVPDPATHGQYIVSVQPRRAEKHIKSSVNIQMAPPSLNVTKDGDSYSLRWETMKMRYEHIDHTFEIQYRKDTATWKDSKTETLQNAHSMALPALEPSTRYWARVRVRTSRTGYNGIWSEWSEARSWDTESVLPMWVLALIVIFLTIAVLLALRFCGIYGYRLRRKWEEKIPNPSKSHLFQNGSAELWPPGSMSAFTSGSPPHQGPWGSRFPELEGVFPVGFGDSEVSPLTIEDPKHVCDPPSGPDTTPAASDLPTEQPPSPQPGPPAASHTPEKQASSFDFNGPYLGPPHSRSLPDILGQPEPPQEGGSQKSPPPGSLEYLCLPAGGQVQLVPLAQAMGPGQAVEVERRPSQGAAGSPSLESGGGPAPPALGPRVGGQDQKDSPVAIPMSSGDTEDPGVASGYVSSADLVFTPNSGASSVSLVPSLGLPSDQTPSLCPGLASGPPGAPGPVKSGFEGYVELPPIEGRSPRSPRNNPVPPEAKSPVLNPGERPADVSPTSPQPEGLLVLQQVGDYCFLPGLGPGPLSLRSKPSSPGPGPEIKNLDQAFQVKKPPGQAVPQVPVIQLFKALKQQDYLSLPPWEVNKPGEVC

Chain of human TYK2 (JH2domain-pseudokinase) (P29597 556-888): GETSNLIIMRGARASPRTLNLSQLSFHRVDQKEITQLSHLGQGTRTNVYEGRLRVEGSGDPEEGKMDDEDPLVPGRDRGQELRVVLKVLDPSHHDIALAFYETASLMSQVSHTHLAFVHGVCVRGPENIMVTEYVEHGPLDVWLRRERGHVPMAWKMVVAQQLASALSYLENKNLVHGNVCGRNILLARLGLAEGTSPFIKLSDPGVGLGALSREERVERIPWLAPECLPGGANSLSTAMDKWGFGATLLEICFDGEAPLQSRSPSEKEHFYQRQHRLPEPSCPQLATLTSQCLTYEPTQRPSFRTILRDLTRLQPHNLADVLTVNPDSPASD

CCOc1ccc(-n2cccc(Nc3cc(NC)n4ncc(C(=O)N[C@H]5C[C@H]5F)c4n3)c2=O)nn1 [I-117]
Kd [1]: < 0.0002 µM | inhibition at 10 µM (Tyk2 kinase domain (DH1); compound at 10 μM, ATP 10 μM): < 50% | inhibition at 10 µM (JAK2 kinase domain (JH1); compound at 10 μM, ATP 10 μM): < 50% | IC50 [2]: < 0.1 µM | IC50 [3]: > 2.5 µM

CNc1cc(Nc2cccc3ocnc23)nc2c(C(=O)N[C@@H]3CC[C@@H]3O)cnn12 [I-770]
Kd [1]: < 0.0002 µM | Tyk2 JH1% Inhibition @ 10 μM (Tyk2 kinase domain (DH1); compound at 10 μM, ATP 10 μM): A (percent inhibition at 10 μM lower than 50) | JAK2 JH1% Inhibition @ 10 μM (JAK2 kinase domain (JH1); compound at 10 μM, ATP 10 μM): A (percent inhibition at 10 μM lower than 50) | IC50 [2]: < 0.1 µM | IC50 [3]: > 2.5 µM

CNc1cc(-c2cn(C(C)C)c3ncccc23)nc2c(C(=O)NC3CC3)cnn12 [I-223]
Kd [1]: < 0.0002 µM | inhibition at 10 µM (Tyk2 kinase domain (DH1); compound at 10 μM, ATP 10 μM): < 50% | inhibition at 10 µM (JAK2 kinase domain (JH1); compound at 10 μM, ATP 10 μM): < 50% | IC50 [2]: < 0.1 µM | IC50 [3]: > 12.5 µM

CNc1cc(Nc2cccn([C@H]3CC[C@H](OC)CC3)c2=O)nc2c(C(=O)N[C@@H]3CC[C@H]3O)cnn12 [I-635]
Kd [1]: < 0.0002 µM | inhibition at 10 µM (Tyk2 kinase domain (DH1); compound at 10 μM, ATP 10 μM): < 50% | inhibition at 10 µM (JAK2 kinase domain (JH1); compound at 10 μM, ATP 10 μM): < 50% | IC50 [2]: < 0.1 µM | IC50 [3]: > 50 µM

CNc1cc(Nc2cccn([C@H]3CC[C@H](OC)CC3)c2=O)nc2c(C(=O)NC3CC3)cnn12 [I-343]
Kd [1]: < 0.0002 µM | inhibition at 10 µM (Tyk2 kinase domain (DH1); compound at 10 μM, ATP 10 μM): < 50% | inhibition at 10 µM (JAK2 kinase domain (JH1); compound at 10 μM, ATP 10 μM): < 50% | IC50 [2]: < 0.1 µM | IC50 [3]: > 12.5 µM

CNc1cc(Nc2cccn([C@H]3CC[C@@H](N4CCOCC4)CC3)c2=O)nc2c(C(=O)NC3CCC3)cnn12 [I-182]
Kd [1]: < 0.0002 µM | inhibition at 10 µM (Tyk2 kinase domain (DH1); compound at 10 μM, ATP 10 μM): < 50% | inhibition at 10 µM (JAK2 kinase domain (JH1); compound at 10 μM, ATP 10 μM): < 50% | IC50 [2]: < 0.1 µM | IC50 [3]: > 2.5 µM

CNc1cc(Nc2cc(Cl)cn([C@H]3CCCOC3)c2=O)nc2c(C(=O)NC3CC3)cnn12 [I-782]
Kd [1]: < 0.0002 µM | inhibition at 10 µM (Tyk2 kinase domain (DH1); compound at 10 μM, ATP 10 μM): < 50% | inhibition at 10 µM (JAK2 kinase domain (JH1); compound at 10 μM, ATP 10 μM): < 50% | IC50 [2]: < 0.1 µM | IC50 [3]: > 50 µM

CNc1cc(Nc2cccc3ocnc23)nc2c(C(=O)NCC(C)(C)CO)cnn12 [I-750]
Kd [1]: < 0.0002 µM | inhibition at 10 µM (Tyk2 kinase domain (DH1); compound at 10 μM, ATP 10 μM): < 50% | inhibition at 10 µM (JAK2 kinase domain (JH1); compound at 10 μM, ATP 10 μM): < 50% | IC50 [2]: < 0.1 µM | IC50 [3]: > 2.5 µM

CNc1cc(Nc2cc(Cl)cn(C3CCN(C)CC3)c2=O)nc2c(C(=O)N[C@@H]3C[C@@H]3F)cnn12 [I-789]
Kd [1]: < 0.0002 µM | inhibition at 10 µM (Tyk2 kinase domain (DH1); compound at 10 μM, ATP 10 μM): < 50% | inhibition at 10 µM (JAK2 kinase domain (JH1); compound at 10 μM, ATP 10 μM): < 50% | IC50 [2]: < 0.1 µM | IC50 [3]: > 12.5 µM

CNc1cc(Nc2cccc([C@H]3CCCOC3)n2)nc2c(C(=O)N[C@@H]3CC[C@H]3O)cnn12 [I-667]
Kd [1]: < 0.0002 µM | inhibition at 10 µM (Tyk2 kinase domain (DH1); compound at 10 μM, ATP 10 μM): < 50% | inhibition at 10 µM (JAK2 kinase domain (JH1); compound at 10 μM, ATP 10 μM): < 50% | IC50 [2]: < 0.1 µM | IC50 [3]: > 12.5 µM

CNc1cc(Nc2cc(Cl)cn(-c3ccc(C4CC4)nn3)c2=O)nc2c(C(=O)N[C@H]3C[C@H]3F)cnn12 [I-334]
Kd [1]: < 0.0002 µM | inhibition at 10 µM (Tyk2 kinase domain (DH1); compound at 10 μM, ATP 10 μM): < 50% | inhibition at 10 µM (JAK2 kinase domain (JH1); compound at 10 μM, ATP 10 μM): < 50% | IC50 [2]: < 0.1 µM | IC50 [3]: > 50 µM

CNc1cc(Nc2cccn(-c3ncc(C)s3)c2=O)nc2c(C(=O)NC3CC3)cnn12 [I-261, N-cyclopropyl-7-(methylamino)-5-((1-(5-methylthiazol-2-yl)-2-oxo-1,2-dihydropyridin-3-yl)amino)pyrazolo[1,5-a]pyrimidine-3-carboxamide]
Kd [1]: 0.0002 to 0.001 µM | inhibition at 10 µM (Tyk2 kinase domain (DH1); compound at 10 μM, ATP 10 μM): < 50% | inhibition at 10 µM (JAK2 kinase domain (JH1); compound at 10 μM, ATP 10 μM): < 50% | IC50 [2]: < 0.1 µM | IC50 [3]: > 2.5 µM

CNc1cc(Nc2cccn(-c3cc(C)on3)c2=O)nc2c(C(=O)NC3CCC3)cnn12 [I-160]
Kd [1]: < 0.0002 µM | inhibition at 10 µM (Tyk2 kinase domain (DH1); compound at 10 μM, ATP 10 μM): < 50% | inhibition at 10 µM (JAK2 kinase domain (JH1); compound at 10 μM, ATP 10 μM): < 50% | IC50 [2]: < 0.1 µM | IC50 [3]: > 12.5 µM

CNc1cc(Nc2cccn(C3CCCCC3)c2=O)nc2c(C(=O)N[C@@H]3CC[C@H]3O)cnn12 [I-1002]
Kd [1]: < 0.0002 µM | Tyk2 JH1% Inhibition @ 10 μM (Tyk2 kinase domain (DH1); 10 μM compound, 10 μM ATP): A (percent inhibition at 10 μM lower than 50) | JAK2 JH1% Inhibition @ 10 μM (JAK2 kinase domain (JH1); 10 μM compound, 10 μM ATP): A (percent inhibition at 10 μM lower than 50) | IC50 [2]: < 0.1 µM | IC50 [3]: > 50 µM

CNc1cc(Nc2cccn(-c3ncc(C)s3)c2=O)nc2c(C(=O)N[C@H]3CC[C@@H]3O)cnn12 (stereo in doubt) [I-676, N-(2-hydroxycyclobutyl)-7-(methylamino)-5-((1-(5-methylthiazol-2-yl)-2-oxo-1,2-dihydropyridin-3-yl)amino)pyrazolo[1,5-a]pyrimidine-3-carboxamide]
Kd [1]: < 0.0002 µM | inhibition at 10 µM (Tyk2 kinase domain (DH1); compound at 10 μM, ATP 10 μM): < 50% | inhibition at 10 µM (JAK2 kinase domain (JH1); compound at 10 μM, ATP 10 μM): < 50% | IC50 [2]: < 0.1 µM | IC50 [3]: > 2.5 µM

CNc1cc(Nc2cccn(-c3cnc(C(=O)N(C)C)cn3)c2=O)nc2c(C(=O)NC3CCC3)cnn12 [I-122]
Kd [1]: < 0.0002 µM | inhibition at 10 µM (Tyk2 kinase domain (DH1); compound at 10 μM, ATP 10 μM): < 50% | inhibition at 10 µM (JAK2 kinase domain (JH1); compound at 10 μM, ATP 10 μM): < 50% | IC50 [2]: < 0.1 µM | IC50 [3]: > 2.5 µM
